PubChem BioAssay (NCI)
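Values below derive from 48-hour exposures of cells grown in 96-well plates, with endpoints linearly interpolated between the two concentrations bracketing the appropriate inhibition level. At the TGI there is no net growth.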

Legend:
Experiment in all cases: inhibition of tumour cell growth, NCI panel, 48 h
[1] = test system: BT-549 breast
[2] = test system: HCC-2998 colon
[3] = test system: OVCAR-5 ovarian
[4] = test system: SK-MEL-28 melanoma
[5] = test system: A498 renal
[6] = test system: SNB-19 CNS
[7] = test system: SF-295 CNS
[8] = test system: MOLT-4 leukemia
[9] = test system: OVCAR-8 ovarian
[10] = test system: OVCAR-3 ovarian
[11] = test system: HL-60(TB) leukemia
[12] = test system: UACC-257 melanoma
[13] = test system: LOX IMVI melanoma
[14] = test system: CAKI-1 renal
[15] = test system: 786-0 renal
[16] = test system: SNB-75 CNS
[17] = test system: COLO 205 colon
[18] = test system: U251 CNS
[19] = test system: MDA-MB-231 breast
[20] = test system: RPMI-8226 leukemia
[21] = test system: SN12C renal
[22] = test system: K-562 leukemia
[23] = test system: MALME-3M melanoma
[24] = test system: NCI/ADR-RES ovarian
[25] = test system: ACHN renal
[26] = test system: EKVX NSCLC
[27] = test system: A549 NSCLC
[28] = test system: NCI-H226 lung
[29] = test system: HT29 colon
[30] = test system: M14 melanoma
[31] = test system: HOP-92 NSCLC
[32] = test system: UO-31 renal
[33] = test system: SR leukemia
[34] = test system: DU-145 prostate
[35] = test system: NCI-H522 lung
[36] = test system: MDA-MB-435
[37] = test system: SK-OV-3 ovarian
[38] = test system: HOP-62 NSCLC
[39] = test system: IGROV1 ovarian
[40] = test system: UACC-62 melanoma
[41] = test system: OVCAR-4 ovarian
[42] = test system: PC-3 prostate
[43] = test system: SF-268 CNS
[44] = test system: MCF7 breast
[45] = test system: HS 578T breast
[46] = test system: SW-620 colon
[47] = test system: KM12 colon
[48] = test system: SK-MEL-5 melanoma
[49] = test system: NCI-H460 lung
[50] = test system: NCI-H23 lung
[51] = test system: MDA-N
[52] = test system: CCRF-CEM leukemia
[53] = test system: SK-MEL-2 melanoma
[54] = test system: HCT-116 colon
[55] = test system: TK-10 renal
[56] = test system: SF-539 CNS
[57] = test system: RXF 393 renal
[58] = test system: HCT-15 colon

CCOP(=O)(OCC)/C(C#N)=C/c1coc2cc(C)cc(C)c2c1=O
TGI [1]: > 100 µM | TGI [2]: > 100 µM | TGI [3]: > 100 µM | TGI [4]: > 100 µM | TGI [5]: > 100 µM | TGI [6]: > 100 µM | TGI [7]: > 100 µM | TGI [8]: > 100 µM | TGI [9]: > 100 µM | TGI [10]: > 100 µM | TGI [11]: > 100 µM | TGI [12]: > 100 µM | TGI [13]: > 100 µM | TGI [14]: > 100 µM | TGI [15]: > 100 µM | TGI [16]: > 100 µM | TGI [17]: > 100 µM | TGI [18]: > 100 µM | TGI [19]: > 100 µM | TGI [20]: > 100 µM | TGI [21]: > 100 µM | TGI [22]: > 100 µM | TGI [23]: > 100 µM | TGI [24]: > 100 µM | TGI [25]: > 100 µM | TGI [26]: > 100 µM | TGI [27]: > 100 µM | TGI [28]: > 100 µM | TGI [29]: > 100 µM | TGI [30]: > 100 µM | TGI [31]: > 100 µM | TGI [32]: > 100 µM | TGI [33]: > 100 µM | TGI [34]: > 100 µM | TGI [35]: > 100 µM | TGI [36]: > 100 µM | TGI [37]: > 100 µM | TGI [38]: > 100 µM | TGI [39]: > 100 µM | TGI [40]: > 100 µM | TGI [41]: > 100 µM | TGI [42]: > 100 µM | TGI [43]: > 100 µM | TGI [44]: > 100 µM | TGI [45]: > 100 µM | TGI [46]: > 100 µM | TGI [47]: > 100 µM | TGI [48]: > 100 µM | TGI [49]: > 100 µM | TGI [50]: > 100 µM | TGI [51]: > 100 µM | TGI [52]: > 100 µM | TGI [53]: > 100 µM | TGI [54]: > 100 µM

COc1ccc([C@H]2[C@H](C)C3=Nc4ccccc4CN32)cc1
TGI [1]: > 100 µM | TGI [2]: > 100 µM | TGI [3]: > 100 µM | TGI [4]: > 100 µM | TGI [5]: > 100 µM | TGI [6]: > 100 µM | TGI [7]: > 100 µM | TGI [8]: > 100 µM | TGI [9]: > 100 µM | TGI [10]: > 100 µM | TGI [11]: > 100 µM | TGI [12]: > 100 µM | TGI [13]: > 100 µM | TGI [14]: > 100 µM | TGI [15]: > 100 µM | TGI [17]: > 100 µM | TGI [18]: > 100 µM | TGI [19]: > 100 µM | TGI [20]: > 100 µM | TGI [21]: > 100 µM | TGI [22]: > 100 µM | TGI [23]: > 100 µM | TGI [24]: > 100 µM | TGI [25]: > 100 µM | TGI [26]: > 100 µM | TGI [27]: > 100 µM | TGI [28]: > 100 µM | TGI [29]: > 100 µM | TGI [30]: > 100 µM | TGI [55]: > 100 µM | TGI [31]: > 100 µM | TGI [32]: > 100 µM | TGI [33]: > 100 µM | TGI [34]: > 100 µM | TGI [35]: > 100 µM | TGI [36]: > 100 µM | TGI [38]: > 100 µM | TGI [39]: > 100 µM | TGI [40]: > 100 µM | TGI [56]: > 100 µM | TGI [41]: > 100 µM | TGI [42]: > 100 µM | TGI [43]: > 100 µM | TGI [44]: > 100 µM | TGI [45]: > 100 µM | TGI [57]: > 100 µM | TGI [46]: > 100 µM | TGI [47]: > 100 µM | TGI [48]: > 100 µM | TGI [49]: > 100 µM | TGI [50]: > 100 µM | TGI [58]: > 100 µM | TGI [51]: 47.2 µM | TGI [53]: > 100 µM | TGI [54]: > 100 µM

C/C(=N/NC(=S)N1CCCCC1)c1cccc(/C(C)=N\NC(=S)N2CCCCC2)n1
TGI [1]: 3.4 µM | TGI [2]: 4.01 µM | TGI [3]: 2.44 µM | TGI [4]: 4.32 µM | TGI [5]: 3.16 µM | TGI [6]: 7.09 µM | TGI [7]: 4.06 µM | TGI [8]: 6.38 µM | TGI [9]: 3.19 µM | TGI [10]: 5.49 µM | TGI [11]: 5.66 µM | TGI [12]: 6.85 µM | TGI [13]: 5.4 µM | TGI [14]: 3.93 µM | TGI [15]: 3.46 µM | TGI [16]: 6.53 µM | TGI [17]: 10.1 µM | TGI [18]: 4.45 µM | TGI [19]: 3.99 µM | TGI [20]: 6.84 µM | TGI [21]: 4.83 µM | TGI [22]: 6.65 µM | TGI [23]: 4.58 µM | TGI [24]: 4.72 µM | TGI [25]: 3.02 µM | TGI [26]: 5.79 µM | TGI [27]: 7.29 µM | TGI [28]: 5.54 µM | TGI [29]: 7.22 µM | TGI [55]: 3.69 µM | TGI [32]: 2.78 µM | TGI [33]: 6.58 µM | TGI [34]: 6.35 µM | TGI [35]: 4.34 µM | TGI [36]: 3.62 µM | TGI [37]: 3.56 µM | TGI [38]: 15.9 µM | TGI [39]: 4.45 µM | TGI [40]: 5.54 µM | TGI [56]: 3.9 µM | TGI [42]: 4.03 µM | TGI [43]: 9.06 µM | TGI [44]: 4.46 µM | TGI [45]: 6.57 µM | TGI [57]: 5.15 µM | TGI [46]: 10.6 µM | TGI [47]: 6.14 µM | TGI [48]: 3.54 µM | TGI [49]: 4.75 µM | TGI [50]: > 100 µM | TGI [58]: 4.25 µM | TGI [51]: 3.17 µM | TGI [52]: > 100 µM | TGI [53]: 4.2 µM | TGI [54]: 3.64 µM
